System: LPS-injected mice
Assay: Sucrose preference test in the LPS-induced model of depression
Assay type: in vivo
Details: Example 9; male C57BL/6, i.p. 1 h before LPS 330 µg/kg; mg/kg: CBD 30; CBDA 1 or 5; BCP 50; kaempferol 30; CBD 30 plus THC 10; CBD 30 plus kaempferol 30
Excerpt: In a preliminary screening experiment, subjects were 4-6 months-old male C57BL/6 (Jackson Laboratories, USA). Animals were housed 2-3/cage, kept in an air-conditioned room (23+°C) and given ad libitum access to food and water. The mice were kept in a reversed light/dark cycle, with lights off from 7 a.m. to 7 p.m. All experiments were approved by the Hebrew University of Jerusalem Ethics Committee on Animal Care and Use. In preparation for the Sucrose Preference Test, mice were habituated 2-3 times to sucrose drinking, by exposing them overnight to two graduated tubes, one containing water and the other containing sucrose solution (1%, w/v). Water and sucrose consumption were measured, and sucrose preference was computed by dividing the amount of sucrose consumed by drinking (ml sucrose) by the total drinking volume (ml of sucrose + water). One day later, the weight of the mice and the food in their cages was weighed for later analysis of food consumption and body weight changes. Groups of mice were injected intraperitoneally (i.p.) with either vehicle (cremophor, ethanol and PBS, 1:1:18 (v/v/v)) or a cannabinoid-based formulation (by itself or with another cannabinoid, or a terpene or a flavonoid). One hour later, each of these groups was injected with LPS (330 µg/kg). All injections were administered at a dose of 10 ml/kg. Four hours following the LPS injection, mice were tested in the Open-Field Test. In this test, the measured locomotor activity reflects not only motor capacity, but particularly the innate motivation for spatial exploration (which increases the distance travelled) and the anxiety level (which reduces the distance travelled, in general, and particularly the distance and time spent in the center of the open field). Each subject was placed near one of the walls of a white 50 X 50 cm^2 arena with 40 cm high walls. The distance travelled (cm), the velocity of the movement (cm/second), the time spent (seconds), distance travelled (cm) in the center area of the arena, as well as the number of entries from the perimeter area into the center of the arena were automatically measured over a 4-minute period, using EthoVision XT video tracking system and software (Noldus, The Netherlands). Twenty-four hours after the LPS injection, mice were tested in the Social Exploration Test. […] Social exploration, defined as the time of near contact between the nose of the subject and the juvenile in the small cage was recorded for 4 min, using computerized in-house software. Sucrose preference was assessed, as described above, between 8 to 27 hr post LPS injection. Body weight and weight of the food were measured two hours before the LPS injection, and again after 24 hours, and the change in body weight and food consumption were calculated. […]

## C=C1CC/C=C(\C)CC[C@@H]2[C@@H]1CC2(C)C [β-caryophyllene]
  sucrose preference compared with vehicle-treated groups: significantly increased sucrose preference

From patent US20230270764A1, “COMPOSITION COMPRISING CANNABINOIDS, TERPENES, AND FLAVONOIDS FOR TREATING DEPRESSION” (priority 2020, published 2023)
